Data: BindingDB's records for doi:10.1016/j.bmcl.2020.127669 (Janssen Research & Development, 2021)

Biological target: 5-hydroxytryptamine receptor 2B (Homo sapiens, UniProt P41595)
Assay: Displacement of […] from human 5-HT2B receptor by competitive radioligand binding assay

5-hydroxytryptamine receptor 2B, sequence (P41595 whole entry): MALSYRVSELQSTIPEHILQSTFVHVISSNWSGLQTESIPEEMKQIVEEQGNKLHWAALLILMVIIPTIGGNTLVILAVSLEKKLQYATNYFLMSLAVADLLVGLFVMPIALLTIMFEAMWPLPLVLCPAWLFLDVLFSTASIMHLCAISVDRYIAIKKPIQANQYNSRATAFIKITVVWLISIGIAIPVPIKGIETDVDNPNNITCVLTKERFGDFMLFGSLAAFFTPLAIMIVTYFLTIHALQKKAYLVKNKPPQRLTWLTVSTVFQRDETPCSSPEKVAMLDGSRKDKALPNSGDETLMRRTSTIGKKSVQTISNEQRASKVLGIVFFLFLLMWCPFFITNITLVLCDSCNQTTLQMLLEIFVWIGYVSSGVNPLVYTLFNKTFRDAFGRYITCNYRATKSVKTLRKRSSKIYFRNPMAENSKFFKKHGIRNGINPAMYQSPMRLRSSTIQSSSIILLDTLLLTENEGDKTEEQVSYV

Ki: 25 nM
SMILES: CC(C)n1nc2c(c1-c1ccc(F)cc1)CCNCC2
